US11339169B2, “P2X3 and/or P2X2/3 compounds and methods” (Asana BioSciences, LLC, priority 2016, dated 2022)
Several values for one entry are separate records, joined by “and”; a condition that tells them apart may be missing. Identical values can stand only once.

Columns and labels:
hP2X3 = biological target: T1, hP2X3 (Homo sapiens, UniProt P56373); experiment: FLIPR intracellular calcium assay, hP2X3; format: cell-based; settings: human P2X3-HEK cells, agonist at EC75
T1 construct: host or cells: HEK (hP2X3-HEK)
T1 sequence (P56373 1-397): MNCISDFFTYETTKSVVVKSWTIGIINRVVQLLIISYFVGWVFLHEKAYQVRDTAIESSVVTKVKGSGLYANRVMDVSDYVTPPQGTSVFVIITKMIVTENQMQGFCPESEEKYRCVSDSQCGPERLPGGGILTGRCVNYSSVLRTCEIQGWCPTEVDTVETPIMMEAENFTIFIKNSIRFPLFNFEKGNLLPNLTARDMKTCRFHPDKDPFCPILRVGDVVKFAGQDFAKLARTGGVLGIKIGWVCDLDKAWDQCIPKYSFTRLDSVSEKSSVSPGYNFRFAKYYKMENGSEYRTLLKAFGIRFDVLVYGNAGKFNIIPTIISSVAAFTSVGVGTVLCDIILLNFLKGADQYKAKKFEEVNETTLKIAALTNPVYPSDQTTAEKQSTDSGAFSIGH
Summary of the method: (§1)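 HEK (hP2X3) or tetracycline-inducible TRex293 (hP2X2/3) cells loaded with Calcium 4 dye, then given 11-point half-log compound dilutions for 15 min at room temperature in HBSS/HEPES, pH 7.4, with 1.8 mM CaCl2. Cells challenged with agonist at EC75; IC50 derived from fluorescence inhibition versus no-compound wells.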

hP2X2/3 = biological target: T2, hP2X2/3 (Homo sapiens, UniProt P56373+Q9UBL9); experiment: FLIPR intracellular calcium assay, hP2X2/3; format: cell-based; settings: human P2X2/3-TRex293 cells, agonist at EC75
T2 construct: host or cells: TRex293 (hP2X2/3-TRex293), doxycycline-induced
T2 sequence (P56373 1-397): T1 sequence (P56373 1-397)
T2 sequence (Q9UBL9 1-471): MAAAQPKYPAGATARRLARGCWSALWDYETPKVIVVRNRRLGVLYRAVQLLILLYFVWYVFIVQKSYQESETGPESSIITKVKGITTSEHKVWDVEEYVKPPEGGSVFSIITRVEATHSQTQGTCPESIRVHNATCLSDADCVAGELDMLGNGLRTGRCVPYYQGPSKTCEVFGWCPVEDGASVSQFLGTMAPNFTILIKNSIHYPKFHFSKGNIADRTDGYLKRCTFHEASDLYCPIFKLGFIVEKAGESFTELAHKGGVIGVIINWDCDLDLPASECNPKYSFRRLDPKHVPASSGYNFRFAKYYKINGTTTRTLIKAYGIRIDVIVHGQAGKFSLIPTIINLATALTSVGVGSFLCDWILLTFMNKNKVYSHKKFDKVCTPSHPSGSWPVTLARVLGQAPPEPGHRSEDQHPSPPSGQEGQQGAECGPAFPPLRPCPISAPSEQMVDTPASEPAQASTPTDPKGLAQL
Summary of the method: as §1

Male Sprague Dawley rats = experiment: In vivo thermal hyperalgesia (Hargreaves test), CFA-injected rat; settings: at 1 hour, p<0.01
Experimental: Male Sprague Dawley rats of young adult age group and body weight range of 180-200 g were included in the study. Animals were housed under a 12 h light/dark cycle with food and water ad libitum. The animals underwent acclimatization with the observation chambers of the Hargreaves' apparatus for two days, twice daily for 45-60 min each time prior to initiation of study. Animals were also habituated to the apparatus for 15-30 min before each testing. Thermal hyperalgesia was assessed using the rat plantar test (Ugo Basile, Italy) following a modified method of Hargreaves (1988), “A new and sensitive method for measuring thermal nociception in cutaneous hyperalgesia”, Pain 32: 77-88, the entire disclosure of which is herein incorporated by reference. […]
Following basal readout of PWL values to the thermal stimulus (PWL measurements described previously), 50 μL of complete Freund's Adjuvant (CFA—1 mg/mL suspension—Sigma, USA, Cat #F5881) was injected subcutaneously into the plantar surface of the right hind (ipsilateral) paw of animals under light isoflurane anesthesia. […]
Next day (day 1) after 20-22 h of CFA injection, PWL of animals were recorded. Mean of three readings are taken as PWL recording of ipsilateral paw of each animal for pre and post CFA basal readout. […]

| Structure (SMILES) | IC50 (hP2X3) [µM] | IC50 (hP2X2/3) | reversal to pre-treatment PWL value (Male Sprague Dawley rats; 30 mg/kg po) [%] | reversal to pre-treatment PWL value (Male Sprague Dawley rats; 60 mg/kg po) [%] |
| --- | --- | --- | --- | --- |
| CC(=O)N1CCN(c2nc(N[C@H](C)c3cnc4ccccc4c3)c3nn(C(C)C)c(C)c3n2)CC1 [Example 102] | 0.001 to 0.1 | > 10 µM | – | – |
| CCC(C)n1ncc2nc(-c3cnn(CCO)c3)nc(N[C@H](C)c3cnc4ccccc4c3)c21 (stereo partly drawn) [Example 113, 2-{4-[1-sec-Butyl-7-((R)-1-quinolin-3-yl-ethylamino)-1H-pyrazolo[4,3-d]pyrimidin-5-yl]-pyrazol-1-yl}-ethanol] | 0.001 to 0.1 | 1 to 10 µM | – | – |
| CCC(C)n1ncc2nc(-c3cnn(C)c3)nc(N[C@@H](c3cnc4ccccc4c3)C3CC3)c21 (stereo partly shown) [Example 114] | 0.001 to 0.1 | 0.001 to 0.1 µM | – | – |
| CCC(C)n1ncc2nc(-c3cnn(CC)c3)nc(N[C@@H](c3cnc4ccccc4c3)C3CC3)c21 (stereo partly shown) [Example 115] | 0.001 to 0.1 | 0.1 to 1 µM | – | – |
| CCC(C)n1ncc2nc(-c3cnn(CCF)c3)nc(N[C@@H](c3cnc4ccccc4c3)C3CC3)c21 (stereo partly shown) [Example 116] | 0.001 to 0.1 | 0.001 to 0.1 µM | – | – |
| Cn1cc(-c2nc(N[C@@H](c3cnc4ccccc4c3)C3CC3)c3c(cnn3C3CCOCC3)n2)cn1 [Example 117] | 0.001 to 0.1 | 1 to 10 µM | – | – |
| CCC(C)n1ncc2nc(C3CCN(C(N)=O)CC3)nc(N[C@@H](c3cnc4ccccc4c3)C3CC3)c21 (stereo partly shown) [Example 118] | 0.001 to 0.1 | 1 to 10 µM | – | – |
| CCC(C)n1ncc2nc(-c3cn[nH]c3)nc(N[C@@H](c3cnc4ccccc4c3)C3CC3)c21 (stereo partly shown) [Example 119] | 0.001 to 0.1 | 1 to 10 µM | – | – |
| CCC(C)n1ncc2nc(-c3cnn(CCO)c3)nc(N[C@@H](c3cnc4ccccc4c3)C3CC3)c21 (stereo partly shown) [Example 121] | 0.001 to 0.1 | 0.1 to 1 µM | – | – |
| CC[C@H](C)n1ncc2nc(-c3cnn(CCF)c3)nc(NC(CO)c3cnc4ccccc4c3)c21 (stereo partly shown) [Example 122] | 0.001 to 0.1 | 0.1 to 1 µM | – | – |
| CCC(C)n1ncc2nc(-c3cnn(CCF)c3)nc(N[C@H](C)c3cn4ccc(C)cc4n3)c21 (stereo partly shown) [Example 123] | 0.001 to 0.1 | 1 to 10 µM and 0.1 to 1 µM | – | – |
| CCC(C)n1ncc2nc(C(=O)NC3CC3)nc(N[C@@H](c3cnc4ccccc4c3)C3CC3)c21 (stereo partly drawn) [Example 124, 1-sec-Butyl-7-[((R)-cyclopropyl-quinolin-3-yl-methyl)-amino]-1H-pyrazolo[4,3-d]pyrimidine-5-carboxylic Acid Cyclopropylamide] | 0.001 to 0.1 | 1 to 10 µM | – | – |
| CCC(C)n1ncc2nc(-c3nnc(C)o3)nc(N[C@@H](c3cnc4ccccc4c3)C3CC3)c21 (stereo partly drawn) [Example 125, [1-sec-Butyl-5-(5-methyl-[1,3,4]oxadiazol-2-yl)-1H-pyrazolo[4,3-d]pyrimidin-7-yl]-((R)-cyclopropyl-quinolin-3-yl-methyl)-amine] | 0.001 to 0.1 | 1 to 10 µM | – | – |
| CCC(C)n1ncc2nc(-n3cc(C(N)=O)nn3)nc(N[C@@H](c3cnc4ccccc4c3)C3CC3)c21 (stereo partly drawn) [Example 126, 1-{1-sec-Butyl-7-[((R)-cyclopropyl-quinolin-3-yl-methyl)-amino]-1H-pyrazolo[4,3-d]pyrimidin-5-yl}-1H-[1,2,3]triazole-4-carboxylic Acid Amide] | 0.001 to 0.1 | 1 to 10 µM | – | – |
| CCC(C)n1ncc2nc(-c3cccnn3)nc(N[C@@H](c3cnc4ccccc4c3)C3CC3)c21 (stereo partly drawn) [Example 127, (1-sec-Butyl-5-pyridazin-3-yl-1H-pyrazolo[4,3-d]pyrimidin-7-yl)-((R)-cyclopropyl-quinolin-3-yl-methyl)-amine] | 0.001 to 0.1 | 1 to 10 µM | – | – |

Continued, in another order:

| IC50 (hP2X3) [µM] | IC50 (hP2X2/3) | Structure (SMILES) | reversal to pre-treatment PWL value (Male Sprague Dawley rats; 30 mg/kg po) [%] | reversal to pre-treatment PWL value (Male Sprague Dawley rats; 60 mg/kg po) [%] |
| --- | --- | --- | --- | --- |
| 0.001 to 0.1 | 0.001 to 0.1 µM | CCC(C)n1ncc2nc(N3CCN(C(N)=O)CC3)nc(N[C@@H](c3cnc4ccccc4c3)C3CC3)c21 (stereo partly drawn) [Example 10, 4-{1-sec-Butyl-7-[((R)-cyclopropyl-quinolin-3-yl-methyl)-amino]-1H-pyrazolo[4,3-d]pyrimidin-5-yl}-piperazine-1-carboxylic Acid Amide] | 32 | – |
| 0.001 to 0.1 | 0.1 to 1 µM | CC[C@H](C)n1ncc2nc(N3CCN(C(C)=O)CC3)nc(N[C@H](C)c3cnc4ccccc4c3)c21 [Example 19] | – | 36 |
| 0.001 to 0.1 | > 10 µM | CC(=O)N1CCN(c2nc(N[C@H](C)c3cnc4ccccc4c3)c3nn(C(C)C)c(C#N)c3n2)CC1 [Example 103] | – | – |
| 0.001 to 0.1 | > 10 µM | CC(=O)N1CCN(c2nc(N[C@H](C)c3cnc4ccccc4c3)c3c(n2)c(C#N)nn3C(C)C)CC1 [Example 104] | – | – |
| 0.001 to 0.1 | 1 to 10 µM | CCC(C)n1nc2c(N[C@H](C)c3cnc4ccccc4c3)nc(N3CCN(C(C)=O)CC3)nc2c1Br (stereo partly shown) [Example 105] | – | – |
| 0.001 to 0.1 | 1 to 10 µM | CCC(C)n1nc2c(N[C@H](C)c3cnc4ccccc4c3)nc(N3CCN(C(C)=O)CC3)nc2c1C#N (stereo partly shown) [Example 106] | – | – |
| 0.001 to 0.1 | 1 to 10 µM | CCC(C)n1ncc2nc(N3CCN(S(N)(=O)=O)CC3)nc(N[C@@H](c3cnc4ccccc4c3)C3CC3)c21 (stereo partly drawn) [Example 108, 4-{1-sec-Butyl-7-[((R)-cyclopropyl-quinolin-3-yl-methyl)-amino]-1H-pyrazolo[4,3-d]pyrimidin-5-yl}-piperazine-1-sulfonic acid amide] | – | – |
| 0.001 to 0.1 | 0.001 to 0.1 µM | CCC(C)n1ncc2nc(N3CCN(C(N)=NC#N)CC3)nc(N[C@@H](c3cnc4ccccc4c3)C3CC3)c21 (stereo partly drawn) [Example 110, 4-(1-sec-butyl-7-{[(R)-cyclopropyl(quinolin-3-yl)methyl]amino}-1H-pyrazolo[4,3-d]pyrimidin-5-yl)-N′-cyanopiperazine-1-carboximidamide] | – | – |
| 0.001 to 0.1 | 0.001 to 0.1 µM | CCC(C)n1ncc2nc(N3CCN(/C(N)=N\C#N)CC3)nc(N[C@H](C)c3cnc4ccccc4c3)c21 (stereo partly drawn) [Example 111, 4-(1-sec-butyl-7-{[(R)-methyl(quinolin-3-yl)methyl]amino}-1H-pyrazolo[4,3-d]pyrimidin-5-yl)-N′-cyanopiperazine-1-carboximidamide] | – | – |
| 0.001 to 0.1 | 0.001 to 0.1 µM | CCC(C)n1ncc2nc(N3CCN(C(=N)N)CC3)nc(N[C@@H](c3cnc4ccccc4c3)C3CC3)c21 (stereo partly drawn) [Example 112, 4-{1-sec-Butyl-7-[((R)-cyclopropyl-quinolin-3-yl-methyl)-amino]-1H-pyrazolo[4,3-d]pyrimidin-5-yl}-piperazine-1-carboxamidine] | – | – |
